In article PMC11215771 (Journal of Medicinal Chemistry, 2024):

Legend:
[1] = target: T1, hBACE1 fused to EGFP or mCherry in HEK293T cells (Homo sapiens, UniProt P56817); assay: Staining of transfected HEK293T cells, confocal imaging: BACE1; assay type: cell-based; conditions: for staining of BACE1 after preincubation with unconjugated C3: living HEK293T, preincubation with 2 μM C3
T1 construct: expressed in transfected cells; host or cells: HEK293T
Method: Next, we explored the performance of the new Alexa-C3 compounds in living cells. Because of the rather hydrophilic properties, we exclusively targeted the cell membrane. To prevent intracellular accumulation, we first performed stainings at 4 °C arresting ATP-dependent endocytosis. […] All of the constructs were tagged at the C-terminus with either EGFP or mCherry to visualize subcellular expression. […] With these experiments, we want to exclude that a lack of staining is caused by an impaired accessibility of the protein by Alexa-C3 compounds. […] We then tested samples with BACE1 expression after fixation of the cells with paraformaldehyde (PFA).
(D) All conjugates were also probed on cells fixed with 4% paraformaldehyde (PFA) for 15 min prior to staining. […] Scale bars represent 5 μm (A–D) and 20 μm (E). […] Samples were excited at 488, 561, and 633 nm, respectively.
HEK293T cells (ATCC accession number CRL-11268) were maintained in Dulbecco's modified Eagle's medium (Sigma-Aldrich D6046) with 1g/L glucose, supplemented with 10% FCS (Merck) and 1% penicillin/streptomycin (PAA). CHO-K1 cells (ATCC #CCL-61) were maintained in modified phenol red free RPMI-1640 medium (Sigma-Aldrich, R7509), supplemented with 2 mM L-glutamine (Sigma-Aldrich, G7513), and 10% FCS (Merck). Cells were cultured at 37 °C in a 5% CO2 atmosphere. The following plasmids were used for transfection with the amount of DNA indicated (per 35 mm Petri dish): hBACE1 (NM_012104.4), 50 ng for single molecule recordings, 200 ng otherwise; hBACE1 fused to EGFP or mCherry, 75 ng; hBACE1 D289N fused to EGFP or mCherry, 75 ng; hBACE1 D289N, 200–400 ng; hBACE2 (NM_012105.3) fused to EGFP, 75 ng; hCathepsinD (HsCD00438327), Harvard PlasmID, 75 ng. Transfection was performed 24 h after plating using jetPEI (Polyplus) according to the manufacturer’s protocol.
For labeling, we plated HEK293T cells onto sterile 18 mm 1.5H borosilicate coverslips (VWR), coated with poly-D-lysine (Sigma). […] In addition, some cells were also fixed with 4% PFA or permeabilized with HBS + 50 μg/mL of Saponin for 15 min prior to staining as stated in the figure legend. After staining, live cells were washed with HBS twice. Confocal imaging was conducted at room temperature in HBS using the 63× objective and the pinhole set to 1 AU. Confocal imaging was performed 24 h after transfection.

[2] = FCS of free Alexa-C3 in HBS in the absence of BACE1; conditions: 100 nM in HBS, pH 5, no BACE1, mean ± SD
[3] = target: T2, recombinant BACE1 extracellular domain (Homo sapiens, UniProt P56817); assay: FRET-based BACE1 inhibition (BACE1-activity FRET) assay; assay type: biochemical
T2 construct: purchased Thermo Fisher Scientific P2985
Method: In addition, we performed a fluorescence resonance energy transfer (FRET)-based BACE1 inhibition assay using the recombinant BACE1 extracellular domain and a BACE1 substrate coupled to a donor fluorophore, which is unquenched […] to the activity of BACE1. […] (Figure 1F).
Protease activity was determined using a FRET-based assay with recombinant BACE1 protein (Thermo Fisher Scientific; P2985). BACE1 inhibition was determined in end-points assays according to the manufacturer’s protocol except using a reduced volume of 12 μL in 384-well plates (Greiner, 788896). […] Fluorescence intensities were quantified with an infinite 200pro reader (Tecan) using top-reading mode. Data points were approximated using a logistic fit to determine half-inhibitory concentrations (pIC50).

[4] = Fluorescence spectroscopy, sensitivity to BSA and Expi293F cells; conditions: mock Expi293F cells in fluorobrite vs PBS alone
Method: Emission and excitation spectra of all compounds were determined at a concentration of 33 nM in phosphate buffered saline (PBS) using an infinite 200pro (Tecan) with a resolution of 2 nm. […] For sensitivity assessment, we used PBS, PBS + BSA (0.05%), and Expi293F cells in fluorobrite (2 × 10^6 cells/mL).

T1 sequence (P56817 46-501): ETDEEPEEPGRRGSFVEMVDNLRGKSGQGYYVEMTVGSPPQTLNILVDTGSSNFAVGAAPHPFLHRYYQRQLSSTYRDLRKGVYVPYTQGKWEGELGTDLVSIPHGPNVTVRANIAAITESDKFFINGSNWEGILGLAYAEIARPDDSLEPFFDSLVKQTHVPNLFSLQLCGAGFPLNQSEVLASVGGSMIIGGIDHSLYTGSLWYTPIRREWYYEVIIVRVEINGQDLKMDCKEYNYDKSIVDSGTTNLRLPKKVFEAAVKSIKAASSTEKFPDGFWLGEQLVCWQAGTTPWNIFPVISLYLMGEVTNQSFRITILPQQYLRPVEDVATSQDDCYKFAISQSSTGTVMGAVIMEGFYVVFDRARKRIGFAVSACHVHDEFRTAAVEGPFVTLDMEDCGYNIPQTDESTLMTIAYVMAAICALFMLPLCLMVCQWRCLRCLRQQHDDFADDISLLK
T2 sequence (P56817 46-457 limits assumed): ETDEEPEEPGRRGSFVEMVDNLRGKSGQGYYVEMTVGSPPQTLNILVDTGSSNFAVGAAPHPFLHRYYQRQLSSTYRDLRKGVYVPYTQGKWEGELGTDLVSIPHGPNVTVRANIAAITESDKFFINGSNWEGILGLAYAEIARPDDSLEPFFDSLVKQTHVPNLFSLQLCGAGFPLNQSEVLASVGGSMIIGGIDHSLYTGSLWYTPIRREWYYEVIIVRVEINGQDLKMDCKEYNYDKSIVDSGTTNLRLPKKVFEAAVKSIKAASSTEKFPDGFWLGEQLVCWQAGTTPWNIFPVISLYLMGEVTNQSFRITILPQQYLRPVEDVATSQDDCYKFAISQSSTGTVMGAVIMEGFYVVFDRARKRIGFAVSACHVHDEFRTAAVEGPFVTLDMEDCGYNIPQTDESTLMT

Compound	specificity in permeabilized cells ([1]; 50 μg/mL saponin prior to staining, 100 nM probe)	staining of BACE1 after fixation with PFA ([1]; HEK293T fixed with 4% PFA for 15 min prior to staining)	staining of BACE1 after preincubation with unconjugated C3 [1]	diffusion time constant of free probe [2] [μs]	impairment of affinity to the catalytic center by dye attachment ([3]; compared with unconjugated C3) [fold]	pIC50 (negative logarithm of the half-inhibitory concentration) ([3]; logistic fit, n = 3 for each compound)	increase of fluorescent output in presence of Expi293F cells [4]	increase of potency of the pIC50 in a cell-free assay vs parent C3 ([3]; compared with unconjugated C3) [fold]	IC50 ([3]; logistic fit, n = 3 for each compound, read-out: pIC50 (negative logarithm of the half-inhibitory concentration) (converted)) [nM]
C[C@@H](NC(=O)c1cc(C(=O)N[C@@H](Cc2ccccc2)[C@H](O)CNC2CC2)cc(N(C)S(=O)(=O)CCCNC(=O)CCCCCC2(C)C(/C=C/C=C/C=C3/N(CCCS(=O)(=O)O)c4ccc(S(=O)(=O)O)cc4C3(C)C)=[N+](CCCS(=O)(=O)[O-])c3ccc(S(=O)(=O)O)cc32)c1)c1ccccc1 (stereo partly drawn)	the same specificity was observed	did not yield a considerable signal	absence of any staining	53 ± 18	10	6.53 (95% CI: 6.05–7.05)	+8%		
C[C@@H](NC(=O)c1cc(C(=O)N[C@@H](Cc2ccccc2)[C@H](O)CNC2CC2)cc(N(C)S(=O)(=O)CCCNC(=O)c2ccc(C(=O)O)c(-c3c4ccc(=N)c(S(=O)(=O)O)c-4oc4c(S(=O)(=O)O)c(N)ccc34)c2)c1)c1ccccc1 [2-(6-Amino-3-iminio-4,5-disulfo-3H-xanthen-9-yl)-4-((3-(N-(3-(((2S,3R)-4-(cyclopropylamino)-3-hydroxy-1-phenylbutan-2-yl)carbamoyl)-5-(((R)-1-phenylethyl)carbamoyl)phenyl)-N-methylsulfamoyl)propyl)carbamoyl)benzoate]			no appreciable fluorescence	35 ± 3			+25%	10	1.86
